How the values were obtained:
Format in all cases: in vivo, human
[1] = system: elderly insomnia patients; test: Subjectively assessed quality of sleep (140 mm visual analog scale), randomized double-blind crossover study; conditions: controlled release 2 mg, 4 weeks, higher = better sleep
Procedure: The effect of a controlled release formulation of melatonin on subjectively assessed sleep quality in 17 elderly insomnia patients (aged 66.9 (SD 5.4) years) were studied in a randomized, double-blind, crossover study. Basal excretion of the main melatonin metabolite 6-sulfatoxymentonin in urine over the nocturnal period (8 p.m.-8 a.m.) was measured and the subjects were treated for 1 week with placebo to establish baseline characteristics followed by a two-period crossover design (4 weeks on either melatonin controlled release 2 mg or placebo) separated by a washout period (1 week). On the last week of the baseline and treatment periods patients were asked to assess the quality of their sleep the previous night by ticking a 140 mm visual analog scale. The distance (in mm) of the patient mark from the left hand side of the scale was measured and a higher number indicated better sleep. The difference from placebo values in the patient evaluation of restful sleep was calculated for smoking and non-smoking patients. There were no significant differences in the amount of nocturnal 6-sulfatoxymentonin excreted by smokers and non-smokers in the study population (3.5+1.5 vs. 6.3+5 μg 6-sulfatoxymentonin, respectively). […] No difference was found in the response to placebo between the smokers and non-smokers.

[2] = system: mixed age insomnia patients; test: Leeds Sleep Evaluation Questionnaire sleep quality, responder rate; conditions: 1 mg per night, 3 weeks
Procedure: The effects of a controlled release formulation of melatonin on subjectively assessed sleep quality were studied in a mixed age insomnia patients population (aged 20-80 years). The subjects were treated for 1 week with placebo to establish baseline characteristics and then for 3 weeks with 1 mg per night of controlled release melatonin or placebo. On the last three days of the baseline and treatment periods patients were asked to assess the quality of their sleep the previous night using the Leeds Sleep Evaluation Questionnaire (Parrott, A. C. and I. Hindmarch (1980). “The Leeds sleep evaluation questionnaire in psychopharmacological investigations—a review.” Psychopharmacology (Berl) 71(2): 173-9) which comprises two 100 mm visual analog scales relating to sleep quality. The distance of the patient mark from the right hand side in mm was measured and the mean answer of the two questions was averaged across the 3 consecutive nights. A responder was defined as a patient showing improvement of 10 mm or more on the averaged value. […] There was no difference in responder rate to placebo between the smokers (46%, n=13) and non-smokers groups (44% n=53, p=0.89, chi-square test).

[3] = system: elderly insomnia patients; test: Psychomotor performance (total reaction time, mean reaction time); conditions: 2 mg per night, 3 weeks
Procedure: The effect of a controlled release formulation of melatonin on psychomotor performance (total reaction time, TRT, and Mean reaction time, MRT) in 40 elderly insomnia patients (aged 60.8 (SD 0.8) years) were studied. The subjects were treated for 2 weeks with placebo (baseline) and 3 weeks with 2 mg per night of controlled release melatonin. On the last two days of treatment psychomotor tests were taken by all patients to assess daytime vigilance.

elderly volunteers = test: Memory recall (Rivermead story test), crossover study; conditions: for Difference in recalls under melatonin and placebo / Mean number of recalled elements of the story: 2 hours after intake; for Mean number of recalled elements of the story: 2 mg controlled release
Procedure: The effect of melatonin (2 mg controlled release formulation) and placebo on memory recall (Rivermead story test) were assessed in 16 elderly volunteers (>55 years; aged 59 (SD 3.2) years). In a randomised, double-blind, crossover study the subjects were given a tablet of placebo in the evening to establish baseline and then a tablet of melatonin or placebo in a random order in the evening with one week with no treatment in between treatments. The Rivermead test was given to the patients at 2 and 12.5 hours after the administration of the tablet. […] Memory efficiency is increased with controlled release 2 mg melatonin for both recalls (immediate and delayed) in the subjects who were smoking or ceased smoking within the last 6 months prior to the study than non-smokers compared to baseline or crossover placebo.

COc1ccc2[nH]cc(CCNC(C)=O)c2c1 [melatonin]
Mean change (in mm) in perceived quality of sleep with melatonin over placebo ([1]; Non smokers (n = 4)): −2.8 mm
Mean change (in mm) in perceived quality of sleep with melatonin over placebo ([1]; Smokers (n = 10)): 15 mm
rate of responders (improvement of 10 mm or more) ([2]; non-smokers, n=43): 40%
rate of responders (improvement of 10 mm or more) ([2]; smokers, n=16): 62%
improvement in psychomotor skills, MRT ([3]; non-smokers): 0.00062 s
improvement in psychomotor skills, TRT ([3]; non-smokers): -5.21 ms
improvement in psychomotor skills, MRT ([3]; smokers): -0.03607 s
improvement in psychomotor skills, TRT ([3]; smokers): -38.95 ms
memory tasks in the first hours of administration over the respective placebo values (elderly volunteers; 2 mg controlled release formulation, single administration): improvement of memory tasks
Difference in recalls under melatonin and placebo (elderly volunteers; Non-smokers (n = 12)): −2.41
Mean number of recalled elements of the story (elderly volunteers; Non-smokers (n = 12)): 9.8
Difference in recalls under melatonin and placebo (elderly volunteers; Smokers (n = 4)): 3.5
Mean number of recalled elements of the story (elderly volunteers; Smokers (n = 4)): 14.8

— patent US9119846B2, “Method and composition for enhancing cognition in alzheimer's patients” (NEURIM PHARMACEUTICALS (1991) LTD., priority 2003, dated 2015)
